Measured values published in publication PMC11614538, “The proline-rich antimicrobial peptide B7-005: low bacterial resistance, safe for human cells and effective in zebrafish embryo bacteraemia model” (Open Biology, 2024).
Residues, ends and D or L forms follow the SMILES beside them.

What was measured:
E. coli ATCC 25922 = experiment: MIC against E. coli ATCC 25922 in the presence of human serum; assay type: cell-based, Escherichia coli
Procedure: Escherichia coli ATCC 25922 was purchased from the American Type Culture Collection (ATCC) (Manassas, Virginia, USA) and stored at −80°C as glycerol stock until use. Bacterial cultures were grown overnight in sterile Müller–Hinton broth (MHB) (Difco Inc.) at 37°C under agitation (140 r.p.m.). The next day, the cultures were diluted 1 : 30 in new MHB and incubated as described above for about 2 h (mean logarithmic phase) until they reached an optical density at 600 nm of about 0.3 and then diluted in fresh MHB to the desired concentrations.
The effects of human serum on the antimicrobial activity of B7-005 were assessed by performing a minimum inhibitory concentration (MIC) assay with some modifications. Non-heat-inactivated human serum (Merk Life Science S.r.l., USA) was diluted to 50%, 40%, 30%, 25%, and 20% (v/v) in MHB and the solutions were aliquoted into the wells of a round-bottomed 96-well microtitre plate (Sarstedt, Milan, Italy). Samples with no serum were used for comparison. B7-005 was diluted in MHB added with the proper amount of serum to a concentration of 128 μM, added to the first column of the plate and serially diluted twofold in MHB, added with the proper amount of serum, in the subsequent wells in a final volume of 50 μl. Then 50 μl of a mid-log suspension of 5 × 10^5 CFU ml^−1 E. coli ATCC 25922 cells prepared in MHB added with the proper amount of serum was added to each well of the plate, halving the final concentration of bacteria and peptide. The plate was incubated at 37°C for 18 h. The MIC value was calculated as the lowest concentration of the compound resulting in complete inhibition of visible bacterial growth. MIC values were determined by performing at least three independent experiments (n ≥ 3).

zebrafish embryos = experiment: In vivo toxicity in zebrafish embryos; conditions: for mortality of larvae: within 72 h, groups of 30, at least three independent experiments
Procedure: All experimental procedures were performed in compliance with relevant laws and institutional guidelines and were performed under the Italian Ministerial Approval (code 1FF80.N.A5X). Zebrafish eggs were placed in E3 Medium (5 mM NaCl, 0.17 mM KCl, 0.33 mM CaCl2, 0.33 mM MgSO4) and incubated at 28°C. Twenty-four hours post-fertilization (hpf), the eggs were manually dechorionated. Later, embryos were placed in E3 Medium supplemented with a final concentration of 0.2 mM phenylthiourea (PTU, Sigma-Aldrich Co.) to inhibit the production of melanin. Forty-eight hpf embryos were anaesthetized using tricaine at a final concentration of 0.02% (v/v) and placed on agarose plates, to remove the excess water and to facilitate injections. Each condition for toxicity evaluation and bacteraemia model was tested on groups of 30 embryos in at least three independent experiments. Only for biodistribution assay, groups of 10 embryos were used for two independent experiments. The injections of peptide or bacteria were performed in a volume of 4.6 nl delivered in the duct of Cuvier of embryos using capillary glass and a Nanoject II Auto-Nanoliter Injector (Drummond Scientific Co., Broomall, PA, USA) and a SteREO Microscope Discovery.V8 (Zeiss, Oberkochen, Germany, UE).
In vivo toxicity of B7-005 was evaluated by injecting 4.6 nl of sterile PBS containing increasing concentrations of the peptide (up to 64 mg kg^−1) in the duct of Cuvier of embryos. PBS only was injected in untreated control groups. The toxicity of the compound was assessed evaluating the mortality of larvae, kept in E3 medium at 28°C, within 72 h after injection.

a human cell line = conditions: ref [20]; cited from earlier work
Source text: In a previous work, we systematically modified Bac7(1-16), an active N-terminal fragment of the natural PrAMP full-length Bac7 [19], to identify the amino acid residues essential for inhibiting protein synthesis, with the goal to discover new derivatives with improved antimicrobial activity. […] B7-005 ...

## CC[C@H](C)[C@H](NC(=O)[C@H](CCCNC(=N)N)NC(=O)[C@@H](N)Cc1c[nH]c2ccccc12)C(=O)N[C@@H](CCCNC(=N)N)C(=O)N[C@@H](CCCNC(=N)N)C(=O)N[C@@H](CCCNC(=N)N)C(=O)N[C@@H](Cc1c[nH]c2ccccc12)C(=O)N1CCC[C@H]1C(=O)N[C@@H](CCCNC(=N)N)C(=O)N[C@@H](CC(C)C)C(=O)N1CCC[C@H]1C(=O)N[C@@H](CCCNC(=N)N)C(=O)N1CCC[C@H]1C(=O)N[C@@H](CCCNC(=N)N)C(=O)N[C@@H](Cc1c[nH]c2ccccc12)C(=O)N[C@@H](CCCNC(=N)N)C(=O)O [B7-005] (H-WRIRRRWPRLPRPRWR-OH)
E. coli ATCC 25922; 0% human serum in MH medium, visual, 18 h at 37°C, mode of n = 3
  MIC of B7-005: 1 µM
E. coli ATCC 25922; 20% (v/v) human serum in MH medium, 18 h at 37°C, mode of n = 3
  MIC of B7-005: 2 µM
E. coli ATCC 25922; 20–30% (v/v) human serum
  MIC of B7-005: 2 µM
E. coli ATCC 25922; 25% (v/v) human serum in MH medium, 18 h at 37°C, mode of n = 3
  MIC of B7-005: 2 µM
E. coli ATCC 25922; 30% (v/v) human serum in MH medium, 18 h at 37°C, mode of n = 3
  MIC of B7-005: 2 µM
E. coli ATCC 25922; 40% (v/v) human serum in MH medium, 18 h at 37°C, mode of n = 3
  MIC of B7-005: 4 µM
E. coli ATCC 25922; 50% (v/v) human serum in MH medium, 18 h at 37°C, mode of n = 3
  MIC of B7-005: 8 µM
Zebrafish embryos; 24 mg kg^−1, injected in duct of Cuvier, untreated control 10%
  mortality of larvae: ≤ 20%
Zebrafish embryos; 32 mg kg^−1, injected in duct of Cuvier
  mortality of larvae: ~ 40%
Zebrafish embryos; injected in duct of Cuvier, 72 h
  lowest concentration significantly reducing viability of larvae: 32 mg/kg
Zebrafish embryos; injected in duct of Cuvier, zebrafish embryos, 72 h
  highest tolerated amount: 24 mg/kg
A human cell line
  cytotoxicity relative to Bac7(1-16): did not increase cytotoxicity relative to Bac7(1-16)
